These results are taken from US20140289906A1, “Compositions Having Dicamba Decarboxylase Activity and Methods of Use” (priority 2013, published 2014).

The test system of the data set is Arabidopsis ecotype Columbia (Col-0). The data set is described as follows: Arabidopsis root growth inhibition assay. The conditions noted are these: 6 days. The protocol:
Phytotoxicity of other major dicamba decarboxylaed products was evaluated using Arabidopsis root growth inhibition assay. 4-chloro-3-methoxy phenol was purchased from Biogene Organics, Inc. (catalog number U06-642-79). 2,5-dichloro phenol was purchased from Sigma-Aldrich (catalog number D70007). Briefly, seeds of Arabidopsis ecotype Columbia (Col-0) were surface sterilized with 70% (v/v) ethanol for 5 minutes and 10% (v/v) bleach for 15 minutes. After being washed three times with distilled water, the seeds were germinated on 1× Murashige and Skoog (MS) medium with a pH of 5.7, 3% (w/v) sucrose, and 0.8% (w/v) agar. After incubation for 3.5 days, the seedlings were transferred to 1×MS medium containing B5 vitamin, 3% (w/v) sucrose, 1.2% (w/v) agar, and filter sterilized compounds was added to the media at 60° C. The concentrations of compounds including dicamba were 0 μM, 1.0 μM, and 10 μM. The seedlings were placed vertically, and the temperature maintained at 23° C. to allow root growth along the surface of the agar, with a photoperiod of 16 h of light and 8 h of dark.

`Oc1cc(Cl)ccc1Cl` [2,5-dichloro phenol]: the Arabidopsis root growth result (1.0 uM in MS medium) is “did not have any effect” and the Arabidopsis root growth result (10 uM in MS medium) is recorded as “did not have any effect”.
